Laboratory results as given in the kinase profiling compilation of Christmann-Franck et al. (2016).

How the values were obtained:
Test in all cases: radiometric filter-binding kinase assay
FGFR1 (human) = FGFR1 (human) (UniProt P11362)
MAP2K1 (human) = MAP2K1 (human) (UniProt Q02750)
[1] = target: STK11 CAB39 STRADA (human) (UniProt Q9Y376+Q7RTN6+Q15831)
IRAK4 (human) = IRAK4 (human) (UniProt Q9NWZ3)
INSR (human) = INSR (human) (UniProt P06213)
MARK2 (human) = MARK2 (human) (UniProt Q7KZI7)
MAP3K9 (human) = MAP3K9 (human) (UniProt P80192)
DYRK3 (human) = DYRK3 (human) (UniProt O43781)
PKN2 (human) = PKN2 (human) (UniProt Q16513)
TTK (human) = TTK (human) (UniProt P33981)
LCK (mouse) = conditions: accession and sequence are those of the human protein
MYLK (human) = MYLK (human) (UniProt Q15746)
INSRR (human) = INSRR (human) (UniProt P14616)
PHKG1 (human) = PHKG1 (human) (UniProt Q16816)
[2] = test system: RPS6KB1 (human), P23443 [T412E]
NEK6 (human) = NEK6 (human) (UniProt Q9HC98)
SYK (human) = SYK (human) (UniProt P43405)
EPHA2 (human) = EPHA2 (human) (UniProt P29317)
GSK3B (human) = GSK3B (human) (UniProt P49841)
PIM3 (human) = PIM3 (human) (UniProt Q86V86)
MAPK13 (human) = MAPK13 (human) (UniProt O15264)
ROCK2 (rat) = conditions: accession and sequence are those of the human protein
[3] = test system: AKT2 (human), P31751 [S474D]
MAPK10 (human) = MAPK10 (human) (UniProt P53779)
NEK2 (human) = NEK2 (human) (UniProt P51955)
PIM2 (human) = PIM2 (human) (UniProt Q9P1W9)
MAPK11 (human) = MAPK11 (human) (UniProt Q15759)
TBK1 (human) = TBK1 (human) (UniProt Q9UHD2)
SRPK1 (human) = SRPK1 (human) (UniProt Q96SB4)
CSNK2A1 (human) = CSNK2A1 (human) (UniProt P68400)
MKNK1 (human) = MKNK1 (human) (UniProt Q9BUB5)
[4] = test system: AKT1 (human), P31749 [S473D]
[5] = test system: PAK2 (human), Q13177 [T402E]

Sequence of MARK2 (human) (Q7KZI7 whole entry, looked up): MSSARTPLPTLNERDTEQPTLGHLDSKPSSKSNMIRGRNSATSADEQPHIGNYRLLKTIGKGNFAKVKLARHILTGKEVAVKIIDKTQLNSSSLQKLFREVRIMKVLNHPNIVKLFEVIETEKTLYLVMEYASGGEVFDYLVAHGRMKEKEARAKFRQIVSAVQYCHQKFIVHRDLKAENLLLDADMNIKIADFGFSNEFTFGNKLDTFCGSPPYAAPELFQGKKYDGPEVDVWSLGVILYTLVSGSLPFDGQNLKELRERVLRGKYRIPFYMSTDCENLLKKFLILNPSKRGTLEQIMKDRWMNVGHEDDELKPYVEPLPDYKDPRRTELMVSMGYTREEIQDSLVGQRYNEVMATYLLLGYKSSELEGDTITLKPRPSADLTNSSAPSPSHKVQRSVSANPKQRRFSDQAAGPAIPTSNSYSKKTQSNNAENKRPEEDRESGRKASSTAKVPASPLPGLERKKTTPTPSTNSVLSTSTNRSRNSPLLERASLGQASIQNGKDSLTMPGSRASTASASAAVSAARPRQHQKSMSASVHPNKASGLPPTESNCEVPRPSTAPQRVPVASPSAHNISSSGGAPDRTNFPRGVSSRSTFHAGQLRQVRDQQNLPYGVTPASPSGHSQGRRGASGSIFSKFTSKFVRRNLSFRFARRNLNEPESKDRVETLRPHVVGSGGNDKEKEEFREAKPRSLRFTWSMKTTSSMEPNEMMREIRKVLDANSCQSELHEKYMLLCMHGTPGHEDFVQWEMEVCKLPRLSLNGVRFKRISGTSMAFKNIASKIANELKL
Sequence of MYLK (human) (Q15746 whole entry, looked up): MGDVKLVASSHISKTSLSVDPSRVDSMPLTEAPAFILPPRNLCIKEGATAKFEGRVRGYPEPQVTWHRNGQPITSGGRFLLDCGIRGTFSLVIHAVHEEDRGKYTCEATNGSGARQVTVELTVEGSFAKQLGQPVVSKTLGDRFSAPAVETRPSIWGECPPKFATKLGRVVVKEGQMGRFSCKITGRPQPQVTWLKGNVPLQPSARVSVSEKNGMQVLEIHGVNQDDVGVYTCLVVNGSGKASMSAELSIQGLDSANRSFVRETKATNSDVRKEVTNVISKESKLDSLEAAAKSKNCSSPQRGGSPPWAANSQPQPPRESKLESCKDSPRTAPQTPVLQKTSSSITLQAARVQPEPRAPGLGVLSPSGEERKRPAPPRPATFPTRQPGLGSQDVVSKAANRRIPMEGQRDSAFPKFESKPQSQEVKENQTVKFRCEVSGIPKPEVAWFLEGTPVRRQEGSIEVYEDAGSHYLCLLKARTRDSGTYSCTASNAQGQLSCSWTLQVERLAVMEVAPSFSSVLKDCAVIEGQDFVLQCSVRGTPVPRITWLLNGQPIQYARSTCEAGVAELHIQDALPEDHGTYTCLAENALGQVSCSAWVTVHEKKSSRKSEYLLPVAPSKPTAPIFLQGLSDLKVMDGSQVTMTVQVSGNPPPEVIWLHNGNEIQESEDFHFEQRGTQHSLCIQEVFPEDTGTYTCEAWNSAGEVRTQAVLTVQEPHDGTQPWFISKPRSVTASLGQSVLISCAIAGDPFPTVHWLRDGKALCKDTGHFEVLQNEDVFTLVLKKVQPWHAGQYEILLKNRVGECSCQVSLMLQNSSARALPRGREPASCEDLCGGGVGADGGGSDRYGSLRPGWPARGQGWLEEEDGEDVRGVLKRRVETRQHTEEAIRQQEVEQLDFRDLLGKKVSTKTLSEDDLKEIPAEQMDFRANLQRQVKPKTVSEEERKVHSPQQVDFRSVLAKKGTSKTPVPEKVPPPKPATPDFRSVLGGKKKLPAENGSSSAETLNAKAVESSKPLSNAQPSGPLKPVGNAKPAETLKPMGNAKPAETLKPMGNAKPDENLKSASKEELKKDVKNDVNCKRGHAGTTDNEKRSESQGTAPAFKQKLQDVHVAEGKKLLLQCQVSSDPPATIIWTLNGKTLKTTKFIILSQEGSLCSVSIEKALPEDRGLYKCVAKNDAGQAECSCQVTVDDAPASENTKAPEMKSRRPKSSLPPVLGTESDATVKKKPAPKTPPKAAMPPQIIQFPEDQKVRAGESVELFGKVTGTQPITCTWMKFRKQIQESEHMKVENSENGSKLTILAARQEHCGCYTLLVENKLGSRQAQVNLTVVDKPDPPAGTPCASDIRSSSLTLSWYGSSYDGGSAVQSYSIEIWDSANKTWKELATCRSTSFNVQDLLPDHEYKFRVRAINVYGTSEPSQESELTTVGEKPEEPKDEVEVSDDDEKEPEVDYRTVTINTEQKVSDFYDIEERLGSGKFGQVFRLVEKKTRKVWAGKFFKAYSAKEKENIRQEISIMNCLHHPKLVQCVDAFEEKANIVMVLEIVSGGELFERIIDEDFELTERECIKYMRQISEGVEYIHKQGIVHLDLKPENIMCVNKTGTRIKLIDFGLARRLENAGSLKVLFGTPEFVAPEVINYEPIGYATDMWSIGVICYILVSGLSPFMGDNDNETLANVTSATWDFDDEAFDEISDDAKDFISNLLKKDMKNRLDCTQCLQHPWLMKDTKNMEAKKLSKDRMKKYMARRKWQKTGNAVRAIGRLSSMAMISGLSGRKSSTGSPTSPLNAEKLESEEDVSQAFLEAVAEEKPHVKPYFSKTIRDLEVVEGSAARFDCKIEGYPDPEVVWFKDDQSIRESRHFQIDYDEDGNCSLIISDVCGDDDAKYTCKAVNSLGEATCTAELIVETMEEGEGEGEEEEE
Sequence of DYRK3 (human) (O43781 whole entry, looked up): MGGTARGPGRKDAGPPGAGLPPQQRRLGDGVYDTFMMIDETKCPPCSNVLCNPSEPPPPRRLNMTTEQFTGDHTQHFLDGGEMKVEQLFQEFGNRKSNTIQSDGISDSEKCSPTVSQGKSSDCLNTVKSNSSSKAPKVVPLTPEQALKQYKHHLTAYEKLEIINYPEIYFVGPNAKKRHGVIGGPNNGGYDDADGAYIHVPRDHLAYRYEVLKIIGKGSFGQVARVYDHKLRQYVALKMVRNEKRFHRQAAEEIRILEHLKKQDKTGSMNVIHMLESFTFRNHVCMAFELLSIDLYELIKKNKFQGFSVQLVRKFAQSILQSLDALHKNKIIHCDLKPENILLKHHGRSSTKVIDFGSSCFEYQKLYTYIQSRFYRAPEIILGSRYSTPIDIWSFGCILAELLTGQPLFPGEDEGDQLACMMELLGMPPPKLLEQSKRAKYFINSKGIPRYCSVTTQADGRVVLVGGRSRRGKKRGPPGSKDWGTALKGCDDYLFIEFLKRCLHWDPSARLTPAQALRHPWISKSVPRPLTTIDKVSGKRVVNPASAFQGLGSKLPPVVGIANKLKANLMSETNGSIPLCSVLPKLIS
Sequence of FGFR1 (human) (P11362 whole entry, looked up): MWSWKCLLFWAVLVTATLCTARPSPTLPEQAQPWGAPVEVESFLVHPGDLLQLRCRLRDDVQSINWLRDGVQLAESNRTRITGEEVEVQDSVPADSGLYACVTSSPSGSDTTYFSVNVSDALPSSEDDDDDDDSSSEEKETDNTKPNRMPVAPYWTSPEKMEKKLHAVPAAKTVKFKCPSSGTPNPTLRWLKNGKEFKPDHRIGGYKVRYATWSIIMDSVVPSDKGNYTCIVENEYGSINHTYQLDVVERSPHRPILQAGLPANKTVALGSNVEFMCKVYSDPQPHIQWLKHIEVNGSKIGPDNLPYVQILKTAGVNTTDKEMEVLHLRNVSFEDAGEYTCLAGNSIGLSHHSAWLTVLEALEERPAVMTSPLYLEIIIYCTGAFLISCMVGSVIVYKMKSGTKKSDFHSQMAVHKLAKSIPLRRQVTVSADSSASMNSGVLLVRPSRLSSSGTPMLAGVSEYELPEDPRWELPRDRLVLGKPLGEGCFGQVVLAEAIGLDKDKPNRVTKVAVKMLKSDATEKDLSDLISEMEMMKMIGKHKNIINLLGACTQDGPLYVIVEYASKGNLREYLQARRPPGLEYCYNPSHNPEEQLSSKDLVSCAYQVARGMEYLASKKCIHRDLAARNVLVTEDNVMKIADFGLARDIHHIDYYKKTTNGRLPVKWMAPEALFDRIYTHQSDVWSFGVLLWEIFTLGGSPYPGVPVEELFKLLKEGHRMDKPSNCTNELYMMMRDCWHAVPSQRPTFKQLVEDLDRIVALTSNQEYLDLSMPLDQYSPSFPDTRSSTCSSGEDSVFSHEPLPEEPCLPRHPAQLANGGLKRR
Sequence of CSNK2A1 (human) (P68400 whole entry, looked up): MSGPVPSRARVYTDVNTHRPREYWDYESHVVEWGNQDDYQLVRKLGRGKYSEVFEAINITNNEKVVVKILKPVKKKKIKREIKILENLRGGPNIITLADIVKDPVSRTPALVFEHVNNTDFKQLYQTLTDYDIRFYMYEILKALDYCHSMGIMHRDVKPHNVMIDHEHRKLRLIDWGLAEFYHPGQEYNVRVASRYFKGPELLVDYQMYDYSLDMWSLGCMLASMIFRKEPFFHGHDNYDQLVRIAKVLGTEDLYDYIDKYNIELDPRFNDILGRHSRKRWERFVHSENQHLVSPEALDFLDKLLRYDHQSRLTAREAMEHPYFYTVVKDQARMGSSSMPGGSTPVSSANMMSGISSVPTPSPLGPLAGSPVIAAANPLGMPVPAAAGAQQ
Sequence of AKT1 (human), P31749 [S473D] (P31749 whole entry S473D, looked up): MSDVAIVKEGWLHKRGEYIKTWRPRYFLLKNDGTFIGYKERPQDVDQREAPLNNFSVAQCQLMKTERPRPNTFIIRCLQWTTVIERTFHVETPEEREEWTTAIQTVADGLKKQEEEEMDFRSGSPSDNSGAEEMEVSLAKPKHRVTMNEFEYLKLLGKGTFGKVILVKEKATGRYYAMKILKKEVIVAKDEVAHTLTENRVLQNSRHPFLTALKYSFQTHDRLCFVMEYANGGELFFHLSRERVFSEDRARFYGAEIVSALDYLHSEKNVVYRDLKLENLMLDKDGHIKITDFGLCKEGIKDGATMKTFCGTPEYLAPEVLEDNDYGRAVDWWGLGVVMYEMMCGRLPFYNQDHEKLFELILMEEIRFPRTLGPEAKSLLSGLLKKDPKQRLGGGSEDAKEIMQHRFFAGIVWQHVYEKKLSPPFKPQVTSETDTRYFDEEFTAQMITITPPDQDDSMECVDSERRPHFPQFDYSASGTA

Structure (SMILES): CN1C(=O)[C@@H](Cc2c[nH]c3ccccc23)NC1=S
- residual activity (FGFR1 (human); compound 1.0 µM): 93%
- residual activity (FGFR1 (human); compound 10.0 µM): 100%
- residual activity (MAP2K1 (human); compound 1.0 µM): 85%
- residual activity (MAP2K1 (human); compound 10.0 µM): 109%
- residual activity ([1]; compound 1.0 µM): 111%
- residual activity ([1]; compound 10.0 µM): 110%
- residual activity (IRAK4 (human); compound 1.0 µM): 109%
- residual activity (IRAK4 (human); compound 10.0 µM): 99%
- residual activity (INSR (human); compound 1.0 µM): 88%
- residual activity (INSR (human); compound 10.0 µM): 106%
- residual activity (MARK2 (human); compound 1.0 µM): 110%
- residual activity (MARK2 (human); compound 10.0 µM): 109%
- residual activity (MAP3K9 (human); compound 1.0 µM): 100%
- residual activity (MAP3K9 (human); compound 10.0 µM): 96%
- residual activity (DYRK3 (human); compound 1.0 µM): 90%
- residual activity (DYRK3 (human); compound 10.0 µM): 82%
- residual activity (PKN2 (human); compound 1.0 µM): 91%
- residual activity (PKN2 (human); compound 10.0 µM): 90%
- residual activity (TTK (human); compound 1.0 µM): 98%
- residual activity (TTK (human); compound 10.0 µM): 106%
- residual activity (LCK (mouse); compound 1.0 µM): 116%
- residual activity (LCK (mouse); compound 10.0 µM): 111%
- residual activity (MYLK (human); compound 1.0 µM): 83%
- residual activity (MYLK (human); compound 10.0 µM): 81%
- residual activity (INSRR (human); compound 1.0 µM): 81%
- residual activity (INSRR (human); compound 10.0 µM): 87%
- residual activity (PHKG1 (human); compound 1.0 µM): 103%
- residual activity (PHKG1 (human); compound 10.0 µM): 97%
- residual activity ([2]; compound 1.0 µM): 83%
- residual activity ([2]; compound 10.0 µM): 99%
- residual activity (NEK6 (human); compound 1.0 µM): 89%
- residual activity (NEK6 (human); compound 10.0 µM): 119%
- residual activity (SYK (human); compound 1.0 µM): 84%
- residual activity (SYK (human); compound 10.0 µM): 125%
- residual activity (EPHA2 (human); compound 1.0 µM): 102%
- residual activity (EPHA2 (human); compound 10.0 µM): 96%
- residual activity (GSK3B (human); compound 1.0 µM): 110%
- residual activity (GSK3B (human); compound 10.0 µM): 101%
- residual activity (PIM3 (human); compound 1.0 µM): 88%
- residual activity (PIM3 (human); compound 10.0 µM): 85%
- residual activity (MAPK13 (human); compound 1.0 µM): 96%
- residual activity (MAPK13 (human); compound 10.0 µM): 102%
- residual activity (ROCK2 (rat); compound 1.0 µM): 96%
- residual activity (ROCK2 (rat); compound 10.0 µM): 97%
- residual activity ([3]; compound 1.0 µM): 79%
- residual activity ([3]; compound 10.0 µM): 68%
- residual activity (MAPK10 (human); compound 1.0 µM): 99%
- residual activity (MAPK10 (human); compound 10.0 µM): 110%
- residual activity (NEK2 (human); compound 1.0 µM): 86%
- residual activity (NEK2 (human); compound 10.0 µM): 86%
- residual activity (PIM2 (human); compound 1.0 µM): 95%
- residual activity (PIM2 (human); compound 10.0 µM): 105%
- residual activity (MAPK11 (human); compound 1.0 µM): 91%
- residual activity (MAPK11 (human); compound 10.0 µM): 88%
- residual activity (TBK1 (human); compound 1.0 µM): 87%
- residual activity (TBK1 (human); compound 10.0 µM): 96%
- residual activity (SRPK1 (human); compound 1.0 µM): 93%
- residual activity (SRPK1 (human); compound 10.0 µM): 89%
- residual activity (CSNK2A1 (human); compound 1.0 µM): 95%
- residual activity (CSNK2A1 (human); compound 10.0 µM): 87%
- residual activity (MKNK1 (human); compound 1.0 µM): 86%
- residual activity (MKNK1 (human); compound 10.0 µM): 78%
- residual activity ([4]; compound 1.0 µM): 96%
- residual activity ([4]; compound 10.0 µM): 91%
- residual activity ([5]; compound 1.0 µM): 102%
- residual activity ([5]; compound 10.0 µM): 94%

Structure (SMILES): O=C(O)c1cc(N=Nc2ccc(S(=O)(=O)Nc3ccccn3)cc2)ccc1O
- residual activity (FGFR1 (human); compound 1.0 µM): 110%
- residual activity (FGFR1 (human); compound 10.0 µM): 115%
- residual activity (MAP2K1 (human); compound 1.0 µM): 86%
- residual activity (MAP2K1 (human); compound 10.0 µM): 91%
- residual activity ([1]; compound 1.0 µM): 124%
- residual activity ([1]; compound 10.0 µM): 117%
- residual activity (IRAK4 (human); compound 1.0 µM): 104%
- residual activity (IRAK4 (human); compound 10.0 µM): 97%
- residual activity (INSR (human); compound 1.0 µM): 101%
- residual activity (INSR (human); compound 10.0 µM): 97%
- residual activity (MARK2 (human); compound 1.0 µM): 108%
- residual activity (MARK2 (human); compound 10.0 µM): 107%
- residual activity (MAP3K9 (human); compound 1.0 µM): 105%
- residual activity (MAP3K9 (human); compound 10.0 µM): 89%
- residual activity (DYRK3 (human); compound 1.0 µM): 89%
- residual activity (DYRK3 (human); compound 10.0 µM): 77%
- residual activity (PKN2 (human); compound 1.0 µM): 94%
- residual activity (PKN2 (human); compound 10.0 µM): 90%
- residual activity (TTK (human); compound 1.0 µM): 98%
- residual activity (TTK (human); compound 10.0 µM): 88%
- residual activity (LCK (mouse); compound 1.0 µM): 102%
- residual activity (LCK (mouse); compound 10.0 µM): 97%
- residual activity (MYLK (human); compound 1.0 µM): 112%
- residual activity (MYLK (human); compound 10.0 µM): 99%
- residual activity (INSRR (human); compound 10.0 µM): 80%
- residual activity (PHKG1 (human); compound 1.0 µM): 104%
- residual activity (PHKG1 (human); compound 10.0 µM): 94%
- residual activity ([2]; compound 1.0 µM): 80%
- residual activity ([2]; compound 10.0 µM): 90%
- residual activity (NEK6 (human); compound 1.0 µM): 98%
- residual activity (NEK6 (human); compound 10.0 µM): 97%
- residual activity (SYK (human); compound 1.0 µM): 101%
- residual activity (SYK (human); compound 10.0 µM): 107%
- residual activity (EPHA2 (human); compound 1.0 µM): 119%
- residual activity (GSK3B (human); compound 1.0 µM): 101%
- residual activity (GSK3B (human); compound 10.0 µM): 93%
- residual activity (PIM3 (human); compound 1.0 µM): 63%
- residual activity (PIM3 (human); compound 10.0 µM): 18%
- residual activity (MAPK13 (human); compound 1.0 µM): 100%
- residual activity (MAPK13 (human); compound 10.0 µM): 103%
- residual activity (ROCK2 (rat); compound 1.0 µM): 93%
- residual activity (ROCK2 (rat); compound 10.0 µM): 90%
- residual activity ([3]; compound 10.0 µM): 94%
- residual activity (MAPK10 (human); compound 1.0 µM): 105%
- residual activity (MAPK10 (human); compound 10.0 µM): 107%
- residual activity (NEK2 (human); compound 10.0 µM): 97%
- residual activity (PIM2 (human); compound 1.0 µM): 98%
- residual activity (PIM2 (human); compound 10.0 µM): 77%
- residual activity (MAPK11 (human); compound 1.0 µM): 113%
- residual activity (MAPK11 (human); compound 10.0 µM): 109%
- residual activity (TBK1 (human); compound 1.0 µM): 111%
- residual activity (TBK1 (human); compound 10.0 µM): 99%
- residual activity (SRPK1 (human); compound 1.0 µM): 106%
- residual activity (SRPK1 (human); compound 10.0 µM): 104%
- residual activity (CSNK2A1 (human); compound 1.0 µM): 83%
- residual activity (CSNK2A1 (human); compound 10.0 µM): 29%
- residual activity (MKNK1 (human); compound 1.0 µM): 97%
- residual activity (MKNK1 (human); compound 10.0 µM): 79%
- residual activity ([4]; compound 1.0 µM): 112%
- residual activity ([4]; compound 10.0 µM): 106%
- residual activity ([5]; compound 1.0 µM): 108%
- residual activity ([5]; compound 10.0 µM): 94%
